Laboratory results taken from PubChem BioAssay (NCI).
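Compound exposure: 48 hours, 5 concentrations, 96-well plates. TGI marks complete inhibition of growth.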

Experiments:
Assay in all cases: inhibition of tumour cell growth, NCI panel, 48 h
HCT-15 colon = test system: HCT-15 colon
OVCAR-3 ovarian = test system: OVCAR-3 ovarian
NCI-H522 lung = test system: NCI-H522 lung
RXF 393 renal = test system: RXF 393 renal
CAKI-1 renal = test system: CAKI-1 renal
KM12 colon = test system: KM12 colon
EKVX NSCLC = test system: EKVX NSCLC
SK-OV-3 ovarian = test system: SK-OV-3 ovarian
SF-295 CNS = test system: SF-295 CNS
SF-539 CNS = test system: SF-539 CNS
U251 CNS = test system: U251 CNS
HL-60(TB) leukemia = test system: HL-60(TB) leukemia
UACC-62 melanoma = test system: UACC-62 melanoma
TK-10 renal = test system: TK-10 renal
K-562 leukemia = test system: K-562 leukemia
ACHN renal = test system: ACHN renal
UACC-257 melanoma = test system: UACC-257 melanoma
LXFL 529 NSCLC = test system: LXFL 529 NSCLC
MOLT-4 leukemia = test system: MOLT-4 leukemia
SK-MEL-2 melanoma = test system: SK-MEL-2 melanoma
HCT-116 colon = test system: HCT-116 colon
OVCAR-5 ovarian = test system: OVCAR-5 ovarian
HOP-92 NSCLC = test system: HOP-92 NSCLC
A498 renal = test system: A498 renal
NCI-H23 lung = test system: NCI-H23 lung
SN12C renal = test system: SN12C renal
CCRF-CEM leukemia = test system: CCRF-CEM leukemia
LOX IMVI melanoma = test system: LOX IMVI melanoma
SNB-19 CNS = test system: SNB-19 CNS
SK-MEL-28 melanoma = test system: SK-MEL-28 melanoma
HCC-2998 colon = test system: HCC-2998 colon
DMS 273 small cell lung = test system: DMS 273 small cell lung
SW-620 colon = test system: SW-620 colon
NCI-H460 lung = test system: NCI-H460 lung
SR leukemia = test system: SR leukemia
XF 498 CNS = test system: XF 498 CNS
SF-268 CNS = test system: SF-268 CNS
HT29 colon = test system: HT29 colon
HOP-62 NSCLC = test system: HOP-62 NSCLC
OVCAR-8 ovarian = test system: OVCAR-8 ovarian
SNB-75 CNS = test system: SNB-75 CNS
IGROV1 ovarian = test system: IGROV1 ovarian
M14 melanoma = test system: M14 melanoma
NCI-H226 lung = test system: NCI-H226 lung
A549 NSCLC = test system: A549 NSCLC
SNB-78 CNS = test system: SNB-78 CNS
UO-31 renal = test system: UO-31 renal
786-0 renal = test system: 786-0 renal
RPMI-8226 leukemia = test system: RPMI-8226 leukemia
OVCAR-4 ovarian = test system: OVCAR-4 ovarian
SK-MEL-5 melanoma = test system: SK-MEL-5 melanoma
KM20L2 colon = test system: KM20L2 colon
MALME-3M melanoma = test system: MALME-3M melanoma
COLO 205 colon = test system: COLO 205 colon
M19-MEL melanoma = test system: M19-MEL melanoma
DMS 114 small cell lung = test system: DMS 114 small cell lung
DLD-1 colon = test system: DLD-1 colon

**Q.** `CN(C)c1c([O-])c(=[N+](C)C)c1=O` was tested. Which TGI (HCT-15 colon) did it give?
**A.** Its TGI is greater than 100 µM.

**Q.** And the TGI (OVCAR-3 ovarian)?
**A.** The TGI was greater than 100 µM.

**Q.** And the TGI (NCI-H522 lung)?
**A.** The TGI was greater than 100 µM.

**Q.** And the TGI (RXF 393 renal)?
**A.** The TGI was greater than 100 µM.

**Q.** What about the TGI (CAKI-1 renal) of the same compound?
**A.** The TGI was greater than 100 µM.

**Q.** What about the TGI (KM12 colon) of the same compound?
**A.** Its TGI is greater than 100 µM.

**Q.** What about the TGI (EKVX NSCLC) of the same compound?
**A.** Its TGI is greater than 100 µM.

**Q.** What about the TGI (SK-OV-3 ovarian) of the same compound?
**A.** The TGI was greater than 100 µM.

**Q.** And the TGI (SF-295 CNS)?
**A.** The TGI was greater than 100 µM.

**Q.** And the TGI (SF-539 CNS)?
**A.** The TGI was greater than 100 µM.

**Q.** And the TGI (U251 CNS)?
**A.** Its TGI is greater than 100 µM.

**Q.** What about the TGI (HL-60(TB) leukemia) of the same compound?
**A.** Its TGI is greater than 100 µM.

**Q.** What about the TGI (UACC-62 melanoma) of the same compound?
**A.** The TGI was greater than 100 µM.

**Q.** What about the TGI (TK-10 renal) of the same compound?
**A.** Its TGI is greater than 100 µM.

**Q.** What about the TGI (K-562 leukemia) of the same compound?
**A.** The TGI was greater than 100 µM.

**Q.** What about the TGI (ACHN renal) of the same compound?
**A.** The TGI was greater than 100 µM.

**Q.** What about the TGI (UACC-257 melanoma) of the same compound?
**A.** Its TGI is greater than 100 µM.

**Q.** And the TGI (LXFL 529 NSCLC)?
**A.** The TGI was greater than 100 µM.

**Q.** And the TGI (MOLT-4 leukemia)?
**A.** The TGI was greater than 100 µM.

**Q.** What about the TGI (SK-MEL-2 melanoma) of the same compound?
**A.** Its TGI is greater than 100 µM.

**Q.** And the TGI (HCT-116 colon)?
**A.** The TGI was greater than 100 µM.

**Q.** What about the TGI (OVCAR-5 ovarian) of the same compound?
**A.** The TGI was greater than 100 µM.

**Q.** And the TGI (HOP-92 NSCLC)?
**A.** Its TGI is greater than 100 µM.

**Q.** And the TGI (A498 renal)?
**A.** Its TGI is greater than 100 µM.

**Q.** And the TGI (NCI-H23 lung)?
**A.** Its TGI is greater than 100 µM.

**Q.** And the TGI (SN12C renal)?
**A.** The TGI was greater than 100 µM.

**Q.** And the TGI (CCRF-CEM leukemia)?
**A.** Its TGI is greater than 100 µM.

**Q.** And the TGI (LOX IMVI melanoma)?
**A.** Its TGI is greater than 100 µM.

**Q.** What about the TGI (SNB-19 CNS) of the same compound?
**A.** The TGI was greater than 100 µM.

**Q.** And the TGI (SK-MEL-28 melanoma)?
**A.** Its TGI is greater than 100 µM.

**Q.** What about the TGI (HCC-2998 colon) of the same compound?
**A.** Its TGI is greater than 100 µM.

**Q.** And the TGI (DMS 273 small cell lung)?
**A.** Its TGI is greater than 100 µM.

**Q.** What about the TGI (SW-620 colon) of the same compound?
**A.** Its TGI is greater than 100 µM.

**Q.** What about the TGI (NCI-H460 lung) of the same compound?
**A.** The TGI was greater than 100 µM.

**Q.** What about the TGI (SR leukemia) of the same compound?
**A.** Its TGI is greater than 100 µM.

**Q.** And the TGI (XF 498 CNS)?
**A.** Its TGI is greater than 100 µM.

**Q.** And the TGI (SF-268 CNS)?
**A.** Its TGI is greater than 100 µM.

**Q.** And the TGI (HT29 colon)?
**A.** Its TGI is greater than 100 µM.

**Q.** What about the TGI (HOP-62 NSCLC) of the same compound?
**A.** Its TGI is greater than 100 µM.

**Q.** And the TGI (OVCAR-8 ovarian)?
**A.** Its TGI is greater than 100 µM.

**Q.** What about the TGI (SNB-75 CNS) of the same compound?
**A.** The TGI was greater than 100 µM.

**Q.** What about the TGI (IGROV1 ovarian) of the same compound?
**A.** Its TGI is greater than 100 µM.

**Q.** And the TGI (M14 melanoma)?
**A.** The TGI was greater than 100 µM.

**Q.** And the TGI (NCI-H226 lung)?
**A.** The TGI was greater than 100 µM.

**Q.** And the TGI (A549 NSCLC)?
**A.** The TGI was greater than 100 µM.

**Q.** What about the TGI (SNB-78 CNS) of the same compound?
**A.** The TGI was greater than 100 µM.

**Q.** What about the TGI (UO-31 renal) of the same compound?
**A.** The TGI was greater than 100 µM.

**Q.** What about the TGI (786-0 renal) of the same compound?
**A.** The TGI was greater than 100 µM.

**Q.** For `O=C(CC(=O)c1ccccc1)CC(O)(c1ccccc1)c1ccccc1`, which TGI (HCT-15 colon) is on record?
**A.** The TGI was 23 µM.

**Q.** What about the TGI (OVCAR-3 ovarian) of the same compound?
**A.** Its TGI is 17.3 µM.

**Q.** And the TGI (NCI-H522 lung)?
**A.** Its TGI is 13.6 µM.

**Q.** And the TGI (CAKI-1 renal)?
**A.** The TGI was 13.4 µM.

**Q.** And the TGI (RPMI-8226 leukemia)?
**A.** Its TGI is greater than 100 µM.

**Q.** What about the TGI (KM12 colon) of the same compound?
**A.** Its TGI is 21.9 µM.

**Q.** What about the TGI (SK-OV-3 ovarian) of the same compound?
**A.** The TGI was 76 µM.

**Q.** What about the TGI (SF-295 CNS) of the same compound?
**A.** Its TGI is 17.1 µM.

**Q.** What about the TGI (OVCAR-4 ovarian) of the same compound?
**A.** The TGI was 17.9 µM.

**Q.** And the TGI (SK-MEL-5 melanoma)?
**A.** The TGI was 13.7 µM.

**Q.** What about the TGI (U251 CNS) of the same compound?
**A.** The TGI was 14.9 µM.

**Q.** And the TGI (HL-60(TB) leukemia)?
**A.** The TGI was 6.54 µM.

**Q.** What about the TGI (UACC-62 melanoma) of the same compound?
**A.** Its TGI is 14.9 µM.

**Q.** And the TGI (TK-10 renal)?
**A.** Its TGI is 42.1 µM.

**Q.** What about the TGI (K-562 leukemia) of the same compound?
**A.** Its TGI is 33.4 µM.

**Q.** And the TGI (ACHN renal)?
**A.** Its TGI is 24.5 µM.

**Q.** And the TGI (UACC-257 melanoma)?
**A.** The TGI was 29.7 µM.

**Q.** And the TGI (LXFL 529 NSCLC)?
**A.** Its TGI is 17 µM.

**Q.** What about the TGI (MOLT-4 leukemia) of the same compound?
**A.** Its TGI is 42.8 µM.

**Q.** What about the TGI (SK-MEL-2 melanoma) of the same compound?
**A.** Its TGI is 22.2 µM.

**Q.** What about the TGI (HCT-116 colon) of the same compound?
**A.** Its TGI is 16.6 µM.

**Q.** And the TGI (KM20L2 colon)?
**A.** Its TGI is 19.5 µM.

**Q.** And the TGI (MALME-3M melanoma)?
**A.** Its TGI is 25.4 µM.

**Q.** And the TGI (OVCAR-5 ovarian)?
**A.** The TGI was 25.6 µM.

**Q.** And the TGI (HOP-92 NSCLC)?
**A.** The TGI was 19.5 µM.

**Q.** And the TGI (A498 renal)?
**A.** The TGI was 25.1 µM.

**Q.** What about the TGI (NCI-H23 lung) of the same compound?
**A.** Its TGI is 18.8 µM.

**Q.** What about the TGI (SN12C renal) of the same compound?
**A.** The TGI was 19.3 µM.

**Q.** And the TGI (CCRF-CEM leukemia)?
**A.** Its TGI is 26 µM.

**Q.** And the TGI (SNB-19 CNS)?
**A.** The TGI was 35.3 µM.

**Q.** What about the TGI (COLO 205 colon) of the same compound?
**A.** Its TGI is 24.6 µM.

**Q.** And the TGI (SK-MEL-28 melanoma)?
**A.** The TGI was 31.9 µM.

**Q.** And the TGI (HCC-2998 colon)?
**A.** The TGI was 23.8 µM.

**Q.** And the TGI (SW-620 colon)?
**A.** Its TGI is 18.1 µM.

**Q.** And the TGI (NCI-H460 lung)?
**A.** The TGI was 16.3 µM.

**Q.** And the TGI (SR leukemia)?
**A.** Its TGI is greater than 100 µM.

**Q.** What about the TGI (SF-268 CNS) of the same compound?
**A.** The TGI was 24.6 µM.

**Q.** And the TGI (M19-MEL melanoma)?
**A.** The TGI was 13.9 µM.

**Q.** What about the TGI (HT29 colon) of the same compound?
**A.** Its TGI is 23.7 µM.

**Q.** What about the TGI (HOP-62 NSCLC) of the same compound?
**A.** Its TGI is 12 µM.

**Q.** What about the TGI (OVCAR-8 ovarian) of the same compound?
**A.** Its TGI is 20.5 µM.

**Q.** What about the TGI (SNB-75 CNS) of the same compound?
**A.** Its TGI is 27.5 µM.

**Q.** And the TGI (M14 melanoma)?
**A.** The TGI was 14.9 µM.

**Q.** And the TGI (DMS 114 small cell lung)?
**A.** Its TGI is 5.73 µM.

**Q.** What about the TGI (SNB-78 CNS) of the same compound?
**A.** Its TGI is 81 µM.

**Q.** And the TGI (UO-31 renal)?
**A.** The TGI was 18.4 µM.

**Q.** And the TGI (DLD-1 colon)?
**A.** The TGI was 26.6 µM.
